Experimental data taken from the supplement of paper PMC11208160.

Assay: recombinant barcode read abundance after kanamycin selection (control-corrected) (log10(CPM+1)); higher = more efficient recombination; sequences stand for … in AGTGCAGAGAAAATCGGCCAGTTTTCTCTGCCTGCAGTCCGCATGCCGT…ATTTATGCAGCGGACTGCCTTTCTCCCAAAGTGATAAACCGGACAGTATCATGGACCGGTTTTCCCGGTAATCCGTATTTGCAAGGTTGGTTTCACT; site = the 11-nt target
Method in brief: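 Oligos holding a promoter, target, barcode and the J23119-driven first 104 bases of the bridge RNA were Gibson-cloned into a vector that supplied the other 73 bp plus a T7-inducible recombinase. This library was co-electroporated with a donor plasmid into E. coli. Two replicates went on chloramphenicol/ampicillin LB agar (control) and two on chloramphenicol/ampicillin/kanamycin with 0.1 mM IPTG. Recombination efficiency is read from averaged, control-corrected barcode counts per million at recombinant junctions, reported as log10(CPM+1).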

With “GCGGGACAGTGGGTTCTAACCTGTTGCCTAG [GCGGGACCTAG_LTGcore_AG_RTGcore_CT] (site GCGGGACCTAG) (LTG core: AG, RTG core: CT)” the “recombinant barcode read abundance (log10)” value was 0.28.
With “GCGGGACCATGGGTTCTAACCTGTTGCCTAG [GCGGGACCTAG_LTGcore_CA_RTGcore_CT] (site GCGGGACCTAG) (LTG core: CA, RTG core: CT)” the “recombinant barcode read abundance (log10)” value was 0.909.
With “GCGGGACCTTGGGTTCTAACCTGTTGCCTCC [GCGGGACCTAG_LTGcore_CT_RTGcore_GG] (site GCGGGACCTAG) (LTG core: CT, RTG core: GG)” the “recombinant barcode read abundance (log10)” value was 1.24.
With “GCGGGACCTTGGGTTCTAACCTGTTGCCTCT [GCGGGACCTAG_LTGcore_CT_RTGcore_AG] (site GCGGGACCTAG) (LTG core: CT, RTG core: AG)” the “recombinant barcode read abundance (log10)” value was 0.713.
With “GCGGGACCTTGGGTTCTAACCTGTTGCCTGT [GCGGGACCTAG_LTGcore_CT_RTGcore_AC] (site GCGGGACCTAG) (LTG core: CT, RTG core: AC)” the “recombinant barcode read abundance (log10)” value was 1.21.
In the case of “GCGGGACCTTGGGTTCTAACCTGTTGCCTTT [GCGGGACCTAG_LTGcore_CT_RTGcore_AA] (site GCGGGACCTAG) (LTG core: CT, RTG core: AA)”, the “recombinant barcode read abundance (log10)” value is reported as 0.927.
With “GCGGGACGCTGGGTTCTAACCTGTTGCCTAG [GCGGGACCTAG_LTGcore_GC_RTGcore_CT] (site GCGGGACCTAG) (LTG core: GC, RTG core: CT)” the “recombinant barcode read abundance (log10)” value was 0.137.
For “GCGGGACTATGGGTTCTAACCTGTTGCCTAG [GCGGGACCTAG_LTGcore_TA_RTGcore_CT] (site GCGGGACCTAG) (LTG core: TA, RTG core: CT)”, the “recombinant barcode read abundance (log10)” value was 0.11.
With “GCGGGACTCTGGGTTCTAACCTGTTGCCTAG [GCGGGACCTAG_LTGcore_TC_RTGcore_CT] (site GCGGGACCTAG) (LTG core: TC, RTG core: CT)” the “recombinant barcode read abundance (log10)” value was 0.467.
In the case of “GCGGGACTCTGGGTTCTAACCTGTTGCCTGA [GCGGGACCTAG_LTGcore_TC_RTGcore_TC] (site GCGGGACCTAG) (LTG core: TC, RTG core: TC)”, the “recombinant barcode read abundance (log10)” value is reported as 0.135.
In the case of “GCGGGACTGTGGGTTCTAACCTGTTGCCTCA [GCGGGACCTAG_LTGcore_TG_RTGcore_TG] (site GCGGGACCTAG) (LTG core: TG, RTG core: TG)”, the “recombinant barcode read abundance (log10)” value is reported as 0.226.
In the case of “GGACACCAATGGGTTCTAACCTGTTGCCTTT [GGACACCCTAG_LTGcore_AA_RTGcore_AA] (site GGACACCCTAG) (LTG core: AA, RTG core: AA)”, the “recombinant barcode read abundance (log10)” value is reported as 0.364.
With “GGACACCCTTGGGTTCTAACCTGTTGCCTGC [GGACACCCTAG_LTGcore_CT_RTGcore_GC] (site GGACACCCTAG) (LTG core: CT, RTG core: GC)” the “recombinant barcode read abundance (log10)” value was 1.55.
With “GGACACCGCTGGGTTCTAACCTGTTGCCTAG [GGACACCCTAG_LTGcore_GC_RTGcore_CT] (site GGACACCCTAG) (LTG core: GC, RTG core: CT)” the “recombinant barcode read abundance (log10)” value was 0.105.
With “GGACACCTCTGGGTTCTAACCTGTTGCCTGA [GGACACCCTAG_LTGcore_TC_RTGcore_TC] (site GGACACCCTAG) (LTG core: TC, RTG core: TC)” the “recombinant barcode read abundance (log10)” value was 0.149.
In the case of “GGACACCTGTGGGTTCTAACCTGTTGCCTAG [GGACACCCTAG_LTGcore_TG_RTGcore_CT] (site GGACACCCTAG) (LTG core: TG, RTG core: CT)”, the “recombinant barcode read abundance (log10)” value is reported as 0.0753.
In the case of “GGACACCTGTGGGTTCTAACCTGTTGCCTCA [GGACACCCTAG_LTGcore_TG_RTGcore_TG] (site GGACACCCTAG) (LTG core: TG, RTG core: TG)”, the “recombinant barcode read abundance (log10)” value is reported as 0.15.
For “GGACACCTTTGGGTTCTAACCTGTTGCCTAA [GGACACCCTAG_LTGcore_TT_RTGcore_TT] (site GGACACCCTAG) (LTG core: TT, RTG core: TT)”, the “recombinant barcode read abundance (log10)” value was 0.175.
